The numbers were not newly measured in patent US4571403A, “Antianginal medicated compound” (Institut Organicheskoi Khimii Imeni N.D. Zelinskogo …, priority 1984, dated 1986), which cites them from elsewhere.

For this series, the system named is myocardium / blood circulation. As to conditions: prior art; cited from earlier work.

Where a name gives a salt, the structure may show the parent alone.

For `O=C(CCN1CCN2CCCC2C1)N1c2ccccc2Sc2ccc(Cl)cc21` (centres unmarked) [nonachlazine], the adrenergic effect entry is “β-adrenostimulating component of the effect on myocardium”; the contraindications result was “cannot be administered in the case of kidney and liver diseases”; the systemic arterial pressure entry is recorded as “lasting hypertension of the arterial pressure”.
As for `O=[N+]([O-])OCC(CO[N+](=O)[O-])O[N+](=O)[O-]` [Trinitroglycerol, trinitroglycerol], the “incompatibility with other pharmaceutical preparations” value is given as “incompatibility with some other pharmaceutical preparations” and the side effects result is “bad tolerance of the preparation by certain categories of patients accompanied by strong headaches”.
With `CCCCc1oc2ccccc2c1C(=O)c1cc(I)c(OCCN(CC)CC)c(I)c1` [Cardaron, [2-butyl-3-benzofuranyl]-[4-(2-diethylaminoethoxy)-3,5-diodophenyl]ketone hydrochloride], the adrenergic effect entry is reported as “antiadrenergic preparations with a mixed effect”, the “blood flow / blood supply of ischemized zones of myocardium” value is “no selective effect on blood supply of the ischemized zone of myocardium”, the “contractability of the heart (inotropic effect)” value is “negative inotropic effect on myocardium” and the duration of action result is reported as “short duration of its action”. Also, the side effects entry is “affection of eye cornea” and the therapeutic range entry was “narrow therapeutic range”.
